In ChEMBL document CHEMBL5385936, “Design, synthesis, α-amylase and glucose diffusion inhibition, and molecular docking studies of new indenopyrazolones bearing benzothiazole derivatives” (Bioorg Med Chem Lett, 2024):

Tests used:
[1] = In vitro antidiabetic activity measured by appearance of glucose in external solution using dialysis bag and D-glucose incubated for 1 to 27 hrs by 3,5-dinitrosalicylic acid based glucose diffusion inhibition assay; type: functional; conditions: time 1-27 hrs
[2] = Inhibition of Aspergillus oryzae alpha-amylase in presence of 1% starch incubated for 10 mins

| IC50 [2] [µg/mL] | SMILES | Activity [1] [µg/mL] |
| --- | --- | --- |
| 167.48 | Cc1cccc2sc(-n3nc(-c4ccccc4)c4c3-c3ccccc3C4=O)nc12 | 6.68 |
| 165.59 | Cc1ccc(-c2nn(-c3nc4c(C)cccc4s3)c3c2C(=O)c2ccccc2-3)cc1 | 7.25 |
| 200.95 | COc1cccc(-c2nn(-c3nc4c(C)cccc4s3)c3c2C(=O)c2ccccc2-3)c1 | 10.8 |
| 104.74 | COc1ccc(-c2nn(-c3nc4ccc(F)cc4s3)c3c2C(=O)c2ccccc2-3)cc1 | 4.26 |
| 98.42 | O=C1c2ccccc2-c2c1c(-c1ccccc1)nn2-c1nc2ccc(F)cc2s1 | 2.63 |
| 103.6 | C[C@H]1O[C@H](O[C@H]2[C@H](O)[C@@H](O)[C@@H](O[C@H]3[C@H](O)[C@@H](O)C(O)O[C@@H]3CO)O[C@@H]2CO)[C@H](O)[C@@H](O)[C@@H]1N[C@H]1C=C(CO)[C@@H](O)[C@H](O)[C@H]1O (some centres not stated) [ACARBOSE] | 2.76 |
| 135.14 | Cc1ccc(-c2nn(-c3nc4ccc(F)cc4s3)c3c2C(=O)c2ccccc2-3)cc1 | 6.8 |
| 161.92 | COc1ccc(-c2nn(-c3nc4c(C)cccc4s3)c3c2C(=O)c2ccccc2-3)cc1 | 12.7 |
| 92.99 | Cc1cccc2sc(-n3nc(-c4ccc(Cl)cc4)c4c3-c3ccccc3C4=O)nc12 | 9.5 |
| 192.95 | O=C1c2ccccc2-c2c1c(-c1cccc(Br)c1)nn2-c1nc2ccc(F)cc2s1 | 11.9 |
| 132.41 | Cc1cccc2sc(-n3nc(-c4ccc(Br)cc4)c4c3-c3ccccc3C4=O)nc12 | 17.2 |
| 171.2 | Cc1cccc2sc(-n3nc(-c4cccc(Cl)c4)c4c3-c3ccccc3C4=O)nc12 | 2.25 |
| 95.41 | Cc1cccc(-c2nn(-c3nc4ccc(F)cc4s3)c3c2C(=O)c2ccccc2-3)c1 | 13.5 |
| 144.106 | O=C1c2ccccc2-c2c1c(-c1ccc(F)cc1)nn2-c1nc2ccc(F)cc2s1 | 11.5 |
| 189.69 | O=C1c2ccccc2-c2c1c(-c1ccc(Cl)cc1)nn2-c1nc2ccc(F)cc2s1 | 17.6 |
| 190.98 | O=C1c2ccccc2-c2c1c(-c1cccc(Cl)c1)nn2-c1nc2ccc(F)cc2s1 | 18 |
| 159.95 | Cc1cccc2sc(-n3nc(-c4ccc(F)cc4)c4c3-c3ccccc3C4=O)nc12 | 13.2 |
| 196.85 | O=C1c2ccccc2-c2c1c(-c1ccc(Br)cc1)nn2-c1nc2ccc(F)cc2s1 | 12.7 |
| 183.43 | Cc1cccc2sc(-n3nc(-c4cccc(Br)c4)c4c3-c3ccccc3C4=O)nc12 | 6.29 |
| 162.5 | COc1cccc(-c2nn(-c3nc4ccc(F)cc4s3)c3c2C(=O)c2ccccc2-3)c1 | 10.9 |
| 198.33 | Cc1cccc(-c2nn(-c3nc4c(C)cccc4s3)c3c2C(=O)c2ccccc2-3)c1 | 8.25 |
